Results as given in ChEMBL document CHEMBL5096151, “Phytocannabinoid Pharmacology: Medicinal Properties of Cannabis sativa Constituents Aside from the "Big Two"” (J Nat Prod, 2021).
In brackets after ≈: the same amount, converted by molar mass.

What was measured:
[1] = target: T1, Transient receptor potential cation channel subfamily V member 2 (Homo sapiens, UniProt Q9Y5S1); assay: Agonist activity at ionomycin-stimulated TRPV2 (unknown origin) channel desensitization in presence of lysophosphatidylcholine
T1 sequence (Q9Y5S1 whole entry): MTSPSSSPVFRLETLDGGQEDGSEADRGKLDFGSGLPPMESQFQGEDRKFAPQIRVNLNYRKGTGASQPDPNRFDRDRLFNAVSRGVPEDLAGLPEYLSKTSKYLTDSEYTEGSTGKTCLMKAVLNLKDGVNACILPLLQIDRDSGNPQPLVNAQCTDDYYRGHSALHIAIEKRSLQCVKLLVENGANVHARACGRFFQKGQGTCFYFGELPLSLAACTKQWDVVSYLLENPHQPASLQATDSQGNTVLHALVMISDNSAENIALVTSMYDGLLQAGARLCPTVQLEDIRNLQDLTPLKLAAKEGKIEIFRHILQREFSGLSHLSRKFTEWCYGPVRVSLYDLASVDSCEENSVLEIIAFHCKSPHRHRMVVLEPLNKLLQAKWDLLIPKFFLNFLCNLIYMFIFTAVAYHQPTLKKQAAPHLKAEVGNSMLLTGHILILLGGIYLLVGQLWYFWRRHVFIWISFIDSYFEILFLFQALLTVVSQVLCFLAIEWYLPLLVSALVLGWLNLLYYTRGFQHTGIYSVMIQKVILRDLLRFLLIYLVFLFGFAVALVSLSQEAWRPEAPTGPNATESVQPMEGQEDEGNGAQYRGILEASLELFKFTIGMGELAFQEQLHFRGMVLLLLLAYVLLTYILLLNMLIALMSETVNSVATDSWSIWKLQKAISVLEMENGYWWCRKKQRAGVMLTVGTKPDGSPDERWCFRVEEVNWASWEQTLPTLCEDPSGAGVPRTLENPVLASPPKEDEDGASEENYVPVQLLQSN

[2] = target: T2, Transient receptor potential cation channel subfamily V member 3 (Homo sapiens, UniProt Q8NET8); assay: Agonist activity at ionomycin-stimulated TRPV3 (unknown origin) channel desensitization in presence of carvacrol
T2 sequence (Q8NET8 whole entry): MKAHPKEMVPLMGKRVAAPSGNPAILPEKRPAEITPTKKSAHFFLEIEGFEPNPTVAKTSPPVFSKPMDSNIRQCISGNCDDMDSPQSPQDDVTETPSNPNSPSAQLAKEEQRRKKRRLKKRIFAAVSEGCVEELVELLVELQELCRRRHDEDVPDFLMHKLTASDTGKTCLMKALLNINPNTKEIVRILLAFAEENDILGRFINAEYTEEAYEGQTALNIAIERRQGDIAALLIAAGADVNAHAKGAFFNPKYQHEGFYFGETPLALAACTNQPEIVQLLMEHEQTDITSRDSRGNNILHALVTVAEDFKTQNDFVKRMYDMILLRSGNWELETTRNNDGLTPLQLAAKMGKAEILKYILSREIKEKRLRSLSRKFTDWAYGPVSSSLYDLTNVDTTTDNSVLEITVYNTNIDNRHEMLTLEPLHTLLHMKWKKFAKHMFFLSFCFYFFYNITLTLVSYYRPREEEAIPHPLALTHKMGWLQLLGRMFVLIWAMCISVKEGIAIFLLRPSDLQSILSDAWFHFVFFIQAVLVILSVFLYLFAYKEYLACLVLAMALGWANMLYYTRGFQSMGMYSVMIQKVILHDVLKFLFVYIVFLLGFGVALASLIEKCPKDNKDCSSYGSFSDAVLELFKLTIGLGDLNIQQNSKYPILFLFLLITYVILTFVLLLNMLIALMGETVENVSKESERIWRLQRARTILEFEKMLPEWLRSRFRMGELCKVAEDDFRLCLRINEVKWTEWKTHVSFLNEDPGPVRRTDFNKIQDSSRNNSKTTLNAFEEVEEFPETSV

[3] = target: T3, Transient receptor potential cation channel subfamily A member 1 (Homo sapiens, UniProt O75762); assay: Agonist activity at TRPA1 (unknown origin) channel desensitization in presence of icilin
[4] = target: T3, Transient receptor potential cation channel subfamily A member 1; assay: Agonist activity at TRPA1 (unknown origin) activation assessed as efficacy relative to control; conditions: filed as agonist
[5] = system: HT-22; assay: Neuroprotection against glutamate-induced oxytosis in mouse HT-22 cells assessed as cell viability; format: functional, cell-based
[6] = target: T4, Cannabinoid receptor 1 (Homo sapiens, UniProt P21554); assay: Binding affinity to CB1 (unknown origin) expressed in CHO -k1 cells assessed as inhibition constant; format: cell-based
[7] = target: T5, Cytochrome P450 2B6 (Homo sapiens, UniProt P20813); assay: Inhibition of recombinant human CYP2B6 using coumarin as substrate preincubated with NADPH for 20 mins and measured after 30 min by Lineweaver-burk plots analysis; format: ADME
T5 sequence (P20813 whole entry): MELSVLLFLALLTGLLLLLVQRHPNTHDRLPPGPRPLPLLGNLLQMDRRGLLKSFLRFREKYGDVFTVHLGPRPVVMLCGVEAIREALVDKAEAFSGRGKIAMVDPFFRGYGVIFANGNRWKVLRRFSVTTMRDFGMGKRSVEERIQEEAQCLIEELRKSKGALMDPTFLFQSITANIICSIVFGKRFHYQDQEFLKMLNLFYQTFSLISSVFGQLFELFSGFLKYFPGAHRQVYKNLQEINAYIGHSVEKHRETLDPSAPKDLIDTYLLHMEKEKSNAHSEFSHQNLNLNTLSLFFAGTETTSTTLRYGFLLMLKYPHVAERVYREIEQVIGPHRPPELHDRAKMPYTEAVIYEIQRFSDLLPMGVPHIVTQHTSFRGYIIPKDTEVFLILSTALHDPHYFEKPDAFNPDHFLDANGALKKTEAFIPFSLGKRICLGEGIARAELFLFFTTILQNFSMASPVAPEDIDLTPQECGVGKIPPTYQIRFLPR

[8] = target: T3, Transient receptor potential cation channel subfamily A member 1; assay: Agonist activity at TRPA1 (unknown origin) channel desensitization in presence of isothiocyanate
[9] = target: T4, Cannabinoid receptor 1; assay: Binding affinity to CB1 (unknown origin) assessed as inhibition constant
[10] = target: Cytochrome P450 2J2 (Homo sapiens, UniProt P51589); assay: Non competitive inhibition of CYP2J2 (unknown origin) in presence of NADPH by LC-MS/MS analysis; format: ADME
[11] = target: T6, Transient receptor potential cation channel subfamily V member 4 (Homo sapiens, UniProt Q9HBA0); assay: Agonist activity at ionomycin-stimulated TRPV4 (unknown origin) activation
[12] = target: T6, Transient receptor potential cation channel subfamily V member 4; assay: Agonist activity at ionomycin-stimulated TRPV4 (unknown origin) channel desensitization in presence of 4alphaPDD
[13] = target: T2, Transient receptor potential cation channel subfamily V member 3; assay: Agonist activity at ionomycin-stimulated TRPV3 (unknown origin) activation
[14] = target: T6, Transient receptor potential cation channel subfamily V member 4; assay: Agonist activity at ionomycin-stimulated TRPV4 (unknown origin) activation assessed as efficacy relative to control
[15] = target: T7, Transient receptor potential cation channel subfamily V member 3 (Homo sapiens) (UniProt Q8NET8); assay: Agonist activity at ionomycin-stimulated TRPV3 (unknown origin) activation assessed as efficacy relative to control
T7 sequence (whole entry): T2 sequence (Q8NET8 whole entry)

[16] = target: T8, Cannabinoid receptor 2 (Homo sapiens, UniProt P34972); assay: Binding affinity to CB2 receptor (unknown origin) expressed in AtT20 cells assessed as inhibition constant; format: cell-based
[17] = target: T9, Cytochrome P450 2A6 (Homo sapiens, UniProt P11509); assay: Non competitive inhibition of recombinant human CYP2A6 using coumarin as substrate preincubated with NADPH for 20 mins and measured after 30 min; format: ADME
[18] = target: T8, Cannabinoid receptor 2; assay: Binding affinity to CB2 receptor (unknown origin) expressed in CHO -k1 cells assessed as inhibition constant; format: cell-based
[19] = target: T1, Transient receptor potential cation channel subfamily V member 2; assay: Agonist activity at ionomycin-stimulated TRPV2 (unknown origin) activation
[20] = target: T10, Transient receptor potential cation channel subfamily V member 1 (Homo sapiens, UniProt Q8NER1); assay: Agonist activity at ionomycin-stimulated TRPV1 (unknown origin) activation assessed as efficacy relative to control
[21] = target: T9, Cytochrome P450 2A6; assay: Non competitive inhibition of recombinant human CYP2A6 using coumarin as substrate preincubated with NADPH for 20 mins and measured after 30 min by Lineweaver-burk plots analysis; format: ADME
[22] = target: T5, Cytochrome P450 2B6; assay: Mixed inhibition of recombinant human CYP2B6 using coumarin as substrate preincubated with NADPH for 20 mins and measured after 30 min by Lineweaver-burk plots analysis; format: ADME
[23] = target: T10, Transient receptor potential cation channel subfamily V member 1; assay: Agonist activity at ionomycin-stimulated TRPV1 (unknown origin) channel desensitization in presence of capsaicin
[24] = target: T3, Transient receptor potential cation channel subfamily A member 1; assay: Agonist activity at TRPA1 (unknown origin) activation
[25] = system: Staphylococcus aureus; assay: Antibacterial activity against methicillin-resistant Staphylococcus aureus; format: functional
[26] = target: T11, Transient receptor potential cation channel subfamily V member 2 (Homo sapiens) (UniProt Q9Y5S1); assay: Agonist activity at ionomycin-stimulated TRPV2 (unknown origin) activation assessed as efficacy relative to control
T11 sequence (whole entry): T1 sequence (Q9Y5S1 whole entry)

[27] = target: Transient receptor potential cation channel subfamily M member 8 (Homo sapiens, UniProt Q7Z2W7); assay: Antagonist activity at TRPM8 (unknown origin) ion channel
[28] = target: T10, Transient receptor potential cation channel subfamily V member 1; assay: Agonist activity at ionomycin-stimulated TRPV1 (unknown origin) activation

T10 sequence (Q8NER1 whole entry): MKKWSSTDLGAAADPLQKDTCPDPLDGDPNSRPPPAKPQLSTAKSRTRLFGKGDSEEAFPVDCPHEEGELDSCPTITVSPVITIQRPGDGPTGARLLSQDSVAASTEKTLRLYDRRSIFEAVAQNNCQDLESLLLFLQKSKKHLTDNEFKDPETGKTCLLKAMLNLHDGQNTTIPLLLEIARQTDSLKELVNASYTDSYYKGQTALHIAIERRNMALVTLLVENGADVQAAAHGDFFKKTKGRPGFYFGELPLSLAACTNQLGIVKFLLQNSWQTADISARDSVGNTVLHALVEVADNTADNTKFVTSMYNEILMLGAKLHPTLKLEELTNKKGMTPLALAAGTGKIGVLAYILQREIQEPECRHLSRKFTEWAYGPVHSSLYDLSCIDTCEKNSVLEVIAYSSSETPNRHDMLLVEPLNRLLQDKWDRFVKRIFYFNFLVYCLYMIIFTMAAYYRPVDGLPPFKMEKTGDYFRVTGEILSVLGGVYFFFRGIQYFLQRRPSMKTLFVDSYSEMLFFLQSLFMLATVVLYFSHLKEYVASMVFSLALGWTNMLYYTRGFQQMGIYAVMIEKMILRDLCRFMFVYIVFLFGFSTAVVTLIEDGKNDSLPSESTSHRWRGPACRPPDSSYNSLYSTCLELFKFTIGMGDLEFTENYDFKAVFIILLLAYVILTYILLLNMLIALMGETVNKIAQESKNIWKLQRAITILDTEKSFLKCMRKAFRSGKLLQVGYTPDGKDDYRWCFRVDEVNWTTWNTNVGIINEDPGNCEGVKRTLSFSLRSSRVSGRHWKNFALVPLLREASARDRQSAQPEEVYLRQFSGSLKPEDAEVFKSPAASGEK
T6 sequence (Q9HBA0 whole entry): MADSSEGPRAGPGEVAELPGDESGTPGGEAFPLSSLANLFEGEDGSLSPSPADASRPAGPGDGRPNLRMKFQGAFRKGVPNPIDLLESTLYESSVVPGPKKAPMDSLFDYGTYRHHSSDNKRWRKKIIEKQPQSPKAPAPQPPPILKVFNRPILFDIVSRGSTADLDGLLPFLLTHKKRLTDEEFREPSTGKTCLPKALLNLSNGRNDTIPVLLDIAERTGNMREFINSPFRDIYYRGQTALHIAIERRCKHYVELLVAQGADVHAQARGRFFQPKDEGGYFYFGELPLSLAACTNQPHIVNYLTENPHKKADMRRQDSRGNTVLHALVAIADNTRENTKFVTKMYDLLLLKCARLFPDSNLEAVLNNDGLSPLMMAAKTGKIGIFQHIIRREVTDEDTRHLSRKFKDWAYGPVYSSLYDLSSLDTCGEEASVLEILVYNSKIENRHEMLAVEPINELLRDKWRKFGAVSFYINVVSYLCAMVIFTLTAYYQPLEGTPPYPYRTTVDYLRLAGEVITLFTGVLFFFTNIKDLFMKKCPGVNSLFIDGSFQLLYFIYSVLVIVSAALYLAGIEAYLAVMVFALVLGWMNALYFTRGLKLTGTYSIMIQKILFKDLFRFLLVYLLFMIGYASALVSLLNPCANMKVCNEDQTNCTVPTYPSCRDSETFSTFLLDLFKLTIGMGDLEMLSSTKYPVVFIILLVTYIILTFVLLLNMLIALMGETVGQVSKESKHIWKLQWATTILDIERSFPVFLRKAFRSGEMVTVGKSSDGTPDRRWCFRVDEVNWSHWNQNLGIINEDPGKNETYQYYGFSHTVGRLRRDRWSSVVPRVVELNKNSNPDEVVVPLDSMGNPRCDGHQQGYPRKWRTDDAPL
T3 sequence (O75762 whole entry): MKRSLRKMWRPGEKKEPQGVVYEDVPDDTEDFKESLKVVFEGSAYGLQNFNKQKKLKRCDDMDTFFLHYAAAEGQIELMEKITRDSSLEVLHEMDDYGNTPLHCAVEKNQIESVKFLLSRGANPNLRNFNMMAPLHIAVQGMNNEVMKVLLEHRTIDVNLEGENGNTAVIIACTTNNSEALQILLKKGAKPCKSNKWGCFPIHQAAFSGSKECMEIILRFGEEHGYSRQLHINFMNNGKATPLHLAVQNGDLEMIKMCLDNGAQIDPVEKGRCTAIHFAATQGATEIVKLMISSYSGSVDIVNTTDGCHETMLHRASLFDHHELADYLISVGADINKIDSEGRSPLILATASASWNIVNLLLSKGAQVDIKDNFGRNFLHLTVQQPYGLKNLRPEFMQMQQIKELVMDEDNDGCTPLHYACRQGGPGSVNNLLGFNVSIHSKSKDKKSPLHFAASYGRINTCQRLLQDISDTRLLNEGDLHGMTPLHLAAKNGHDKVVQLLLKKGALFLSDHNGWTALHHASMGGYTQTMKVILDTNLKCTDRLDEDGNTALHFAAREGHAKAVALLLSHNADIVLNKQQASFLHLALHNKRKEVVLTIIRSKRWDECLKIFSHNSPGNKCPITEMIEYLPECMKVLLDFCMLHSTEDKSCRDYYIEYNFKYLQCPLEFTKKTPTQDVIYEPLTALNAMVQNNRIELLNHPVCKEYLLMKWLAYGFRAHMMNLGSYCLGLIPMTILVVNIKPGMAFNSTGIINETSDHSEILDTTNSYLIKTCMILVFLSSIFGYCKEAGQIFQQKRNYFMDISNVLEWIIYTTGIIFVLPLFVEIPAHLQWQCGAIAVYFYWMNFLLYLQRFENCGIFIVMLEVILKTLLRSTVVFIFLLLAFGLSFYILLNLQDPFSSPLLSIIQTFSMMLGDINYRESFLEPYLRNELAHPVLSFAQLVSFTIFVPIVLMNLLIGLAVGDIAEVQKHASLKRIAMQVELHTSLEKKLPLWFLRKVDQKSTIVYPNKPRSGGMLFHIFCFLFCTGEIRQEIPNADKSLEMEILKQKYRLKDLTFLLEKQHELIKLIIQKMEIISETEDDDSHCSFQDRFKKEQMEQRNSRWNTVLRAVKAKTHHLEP
T9 sequence (P11509 whole entry): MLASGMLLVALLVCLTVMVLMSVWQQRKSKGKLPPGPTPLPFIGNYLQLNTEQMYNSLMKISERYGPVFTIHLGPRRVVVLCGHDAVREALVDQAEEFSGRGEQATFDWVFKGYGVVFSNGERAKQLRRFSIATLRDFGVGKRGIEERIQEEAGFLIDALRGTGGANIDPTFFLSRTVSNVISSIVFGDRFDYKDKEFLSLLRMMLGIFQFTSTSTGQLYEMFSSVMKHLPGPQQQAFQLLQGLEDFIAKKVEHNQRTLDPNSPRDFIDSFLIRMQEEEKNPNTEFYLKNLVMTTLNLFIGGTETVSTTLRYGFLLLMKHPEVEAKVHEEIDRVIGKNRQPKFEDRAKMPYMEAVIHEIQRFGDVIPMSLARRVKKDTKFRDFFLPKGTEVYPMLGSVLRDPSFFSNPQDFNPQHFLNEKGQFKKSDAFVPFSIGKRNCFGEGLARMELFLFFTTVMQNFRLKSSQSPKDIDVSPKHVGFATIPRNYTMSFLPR
T4 sequence (P21554 whole entry): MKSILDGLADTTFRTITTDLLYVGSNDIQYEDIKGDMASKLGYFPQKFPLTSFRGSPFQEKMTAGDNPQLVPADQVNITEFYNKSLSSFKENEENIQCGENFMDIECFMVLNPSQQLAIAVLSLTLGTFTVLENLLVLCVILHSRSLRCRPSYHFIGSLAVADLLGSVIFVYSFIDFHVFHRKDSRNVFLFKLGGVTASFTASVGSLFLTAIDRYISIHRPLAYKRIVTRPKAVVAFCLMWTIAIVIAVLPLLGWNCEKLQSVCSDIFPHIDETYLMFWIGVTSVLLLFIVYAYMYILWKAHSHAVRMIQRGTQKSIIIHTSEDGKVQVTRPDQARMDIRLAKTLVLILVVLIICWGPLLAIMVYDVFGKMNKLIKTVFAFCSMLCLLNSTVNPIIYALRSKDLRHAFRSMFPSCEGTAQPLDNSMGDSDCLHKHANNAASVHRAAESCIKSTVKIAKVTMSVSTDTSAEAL
T8 sequence (P34972 whole entry): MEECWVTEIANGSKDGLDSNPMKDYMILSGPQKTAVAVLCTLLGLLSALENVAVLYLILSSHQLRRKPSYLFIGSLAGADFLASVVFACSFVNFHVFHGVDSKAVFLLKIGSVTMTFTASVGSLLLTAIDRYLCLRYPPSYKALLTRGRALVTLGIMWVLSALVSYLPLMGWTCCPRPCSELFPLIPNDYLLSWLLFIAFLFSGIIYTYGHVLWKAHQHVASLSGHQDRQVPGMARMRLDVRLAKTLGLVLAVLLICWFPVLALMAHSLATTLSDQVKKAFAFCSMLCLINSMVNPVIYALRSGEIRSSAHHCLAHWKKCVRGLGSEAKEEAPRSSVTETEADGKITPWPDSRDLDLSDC
Sequence of Cytochrome P450 2J2 (P51589 whole entry): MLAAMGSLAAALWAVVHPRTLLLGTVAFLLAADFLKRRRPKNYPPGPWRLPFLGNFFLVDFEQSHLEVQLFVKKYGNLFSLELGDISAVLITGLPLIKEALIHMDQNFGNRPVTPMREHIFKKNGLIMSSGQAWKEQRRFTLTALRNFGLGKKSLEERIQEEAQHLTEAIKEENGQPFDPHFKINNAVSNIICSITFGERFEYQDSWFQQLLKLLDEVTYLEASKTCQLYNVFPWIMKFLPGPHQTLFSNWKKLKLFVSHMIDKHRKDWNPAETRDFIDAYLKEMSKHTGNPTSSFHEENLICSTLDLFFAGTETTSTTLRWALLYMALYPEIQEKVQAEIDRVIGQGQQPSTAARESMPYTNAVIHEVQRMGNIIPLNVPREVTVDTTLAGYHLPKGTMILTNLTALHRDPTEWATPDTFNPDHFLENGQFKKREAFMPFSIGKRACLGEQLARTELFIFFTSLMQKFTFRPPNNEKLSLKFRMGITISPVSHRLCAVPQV

CCCCCc1cc(O)c2c(c1)OC(C)(C)c1ccc(C)cc1-2 [CANNABINOL]
IC50 [1]: 15.7 µM | IC50 [2]: 9.4 µM | IC50 [3]: 0.21 µM | Efficacy [4]: 243% | EC50 [5]: 0.61 µM | Ki [6]: 0.07 µM | Ki [7]: 2.55 µM | IC50 [8]: 0.4 µM | Ki [9]: 1.1 µM | IC50 [10]: 19 µM | EC50 [11]: 16.1 µM | IC50 [12]: 5.4 µM | EC50 [13]: 5.3 µM | Efficacy ([14]; filed as agonist): 60% | Efficacy ([15]; filed as agonist): 72% | Ki [16]: 0.3 µM | IC50 [17]: 30.4 µM | Ki [18]: 0.07 µM | EC50 [19]: 19 µM | Efficacy [20]: < 10% | Ki [21]: 1 µM | Ki [22]: 39 µM | IC50 [23]: 82 µM | EC50 [24]: 0.18 µM | MIC [25]: 1 µg/mL (≈ 3.22 µM) | Efficacy ([26]; filed as agonist): 74%

CCCCCc1cc(O)c2c(c1)OC(C)(CCC=C(C)C)C=C2 (stereo unspecified) [CANNABICHROMENE]
IC50 [1]: 6.5 µM | IC50 [2]: 201 µM | Efficacy [4]: 119% | IC50 [8]: 0.37 µM | IC50 [27]: 40.7 µM | EC50 [11]: 0.6 µM | IC50 [12]: 9.9 µM | EC50 [13]: 1.9 µM | Efficacy [14]: 23% | Efficacy [15]: 20% | Efficacy [20]: < 10% | IC50 [23]: > 50 µM | EC50 [24]: 0.09 µM | Efficacy [26]: < 10% | EC50 [28]: 24.2 µM
